Structures can show the parent of a compound that is named as a salt.
Target: SARS-CoV-2 Mac1 (Severe acute respiratory syndrome coronavirus 2, UniProt P0DTD1)
Assay: biochemical
Details: for inhibition at 100 µM: read-out: %inhibition; for %inhibition: 100 µM, inhibitor

| Compound | inhibition at 100 µM [%] | %inhibition [%] |
| --- | --- | --- |
| C#Cc1cccc(Nc2ncnc3cc(OC)c(OCCCCCCC(=O)NO)cc23)c1 [CUDC-101] | 6.86 |  |
| CO[C@H]1C(=O)[C@]2(C)[C@@H](OC)C[C@H]3OC[C@@]3(OC(C)=O)[C@H]2[C@H](OC(=O)c2ccccc2)[C@]2(O)C[C@H](OC(=O)[C@H](O)[C@@H](NC(=O)OC(C)(C)C)c3ccccc3)C(C)=C1C2(C)C [Cabazitaxel] | 25.1 |  |
| COc1cc2nccc(Oc3ccc(NC(=O)C4(C(=O)Nc5ccc(F)cc5)CC4)cc3)c2cc1OC [Cabozantinib (XL184, BMS-907351)] |  | 25.14 |
| COc1cc2nccc(Oc3ccc(NC(=O)C4(C(=O)Nc5ccc(F)cc5)CC4)cc3)c2cc1OC [Cabozantinib malate (XL184)] |  | 0 |
| C=C1CC[C@H](O)C/C1=C/C=C1\CCC[C@]2(C)[C@@H]([C@H](C)CCCC(C)(C)O)CC[C@@H]12 [Calcifediol] | 0 |  |
| C=C1/C(=C\C=C2/CCC[C@]3(C)[C@@H]([C@H](C)/C=C/[C@@H](O)C4CC4)CC[C@@H]23)C[C@@H](O)C[C@@H]1O [Calcipotriene] | 0 |  |
| CC(C)(CO)[C@@H](O)C(=O)NCCC(=O)O [Calcium D-Panthotenate] | 14.2 |  |
| O=C(O)C(O)[C@H](O)[C@@H](O)[C@H](O)[C@H](O)CO (some centres unmarked) [Calcium Gluceptate] | 0 |  |
| Nc1nc(=O)c2c([nH]1)NCC(CNc1ccc(C(=O)N[C@@H](CCC(=O)O)C(=O)O)cc1)N2C=O (some centres unmarked) [Calcium folinate] | 0 |  |
| O=C(O)[C@H](O)[C@@H](O)[C@H](O)[C@H](O)CO [Calcium gluconate] | 0 |  |
| CN(C)C(=O)COC(=O)Cc1ccc(OC(=O)c2ccc(NC(=N)N)cc2)cc1 [Camostat Mesilate] | 42.9 |  |
| Cc1ccc([C@@H]2O[C@H](CO)[C@@H](O)[C@H](O)[C@H]2O)cc1Cc1ccc(-c2ccc(F)cc2)s1 [Canagliflozin] | 0 |  |
| CCOc1nc2cccc(C(=O)OC(C)OC(=O)OC3CCCCC3)c2n1Cc1ccc(-c2ccccc2-c2nn[nH]n2)cc1 (centres unmarked) [Candesartan Cilexetil] | 0 |  |
| CCOc1nc2cccc(C(=O)O)c2n1Cc1ccc(-c2ccccc2-c2nnn[nH]2)cc1 [Candesartan] | 0 |  |
| CSCCNc1nc(SCCC(F)(F)F)nc2c1ncn2[C@@H]1O[C@H](COP(=O)(O)OP(=O)(O)C(Cl)(Cl)P(=O)(O)O)[C@@H](O)[C@H]1O [Cangrelor Tetrasodium] | 0 |  |
| CCCCCOC(=O)Nc1nc(=O)n([C@@H]2O[C@H](C)[C@@H](O)[C@H]2O)cc1F [Capecitabine] | 6.29 |  |
| COc1cc(CNC(=O)CCCC/C=C/C(C)C)ccc1O [Capsaicin(Vanilloid)] |  | 5.806 |
| C[C@H](CS)C(=O)N1CCC[C@H]1C(=O)O [Captopril] | 0 |  |
| C[N+](C)(C)CCOC(N)=O [Carbachol] | 3.56 |  |
| COC(=O)N/N=C/c1c[n+]([O-])c2ccccc2[n+]1[O-] [Carbadox] | 6.86 |  |
| NC(=O)N1c2ccccc2C=Cc2ccccc21 [Carbamazepine] | 0 |  |
| CC(=O)Oc1ccccc1C(=O)O [Carbasalate Calcium] |  | 5.528 |

| Compound | inhibition at 100 µM [%] | %inhibition [%] |
| --- | --- | --- |
| CN1c2cc(O)c(N=NC(N)=O)cc2CC1S(=O)(=O)O (centres unmarked) [Carbazochrome sodium sulfonate (AC-17)] | 15.7 |  |
| CN1CC(O)C2=C/C(=N/NC(N)=O)C(=O)C=C21 (centres unmarked) [Carbazochrome] | 10.9 |  |
| CC1(C)S[C@@H]2[C@H](NC(=O)C(C(=O)O)c3ccccc3)C(=O)N2[C@H]1C(=O)O (some centres unmarked) [Carbenicillin disodium] | 2.9 |  |
| CC1(C)[C@@H](OC(=O)CCC(=O)O)CC[C@]2(C)[C@H]3C(=O)C=C4[C@@H]5C[C@@](C)(C(=O)O)CC[C@]5(C)CC[C@@]4(C)[C@]3(C)CC[C@@H]12 [Carbenoxolone Sodium] | 4.8 |  |
| C[C@@](Cc1ccc(O)c(O)c1)(NN)C(=O)O [Carbidopa] | 24.2 |  |
| CCOC(=O)n1ccn(C)c1=S [Carbimazole] | 0 |  |
| CN(C)CCOC(c1ccc(Cl)cc1)c1ccccn1 (centres unmarked) [CarbinoxaMine Maleate] | 0 |  |
| CCCCC[C@](C)(O)/C=C/[C@@H]1[C@@H](C/C=C\CCCC(=O)O)[C@@H](O)C[C@H]1O [Carboprost] | 17.6 |  |
| CCCCCCNC(=O)n1cc(F)c(=O)[nH]c1=O [Carmofur] |  | 16.37 |
| CC(C(=O)O)c1ccc2c(c1)[nH]c1ccc(Cl)cc12 (centres unmarked) [Carprofen] | 0 |  |
| O=c1[nH]c(=O)c2ccccc2o1 [Carsalam] | 0 |  |
| CC(C)(C)NCC(O)COc1cccc2c1CCC(=O)N2 (centres unmarked) [Carteolol HCl] | 3.36 |  |
| COc1ccccc1OCCNCC(O)COc1cccc2[nH]c3ccccc3c12 (centres unmarked) [Carvedilol Phosphate] |  | 0 |
| COc1ccccc1OCCNCC(O)COc1cccc2[nH]c3ccccc3c12 (centres unmarked) [Carvedilol] |  | 23.79 |
| NS(=O)(=O)c1ccc(C(=O)O)cc1 [Carzenide] | 0 |  |
| CC[C@H](C)C[C@H](C)CCCCCCCCC(=O)N[C@H]1C[C@@H](O)[C@@H](NCCN)NC(=O)[C@@H]2[C@@H](O)CCN2C(=O)[C@H]([C@H](O)CCN)NC(=O)[C@H]([C@H](O)[C@@H](O)c2ccc(O)cc2)NC(=O)[C@@H]2C[C@@H](O)CN2C(=O)[C@H]([C@@H](C)O)NC1=O [Caspofungin Acetate] | 0 |  |
| COc1cc2c(Oc3ccc4[nH]c(C)cc4c3F)ncnc2cc1OCCCN1CCCC1 [Cediranib (AZD2171)] | 51.1 |  |
| N[C@@H](C(=O)N[C@@H]1C(=O)N2C(C(=O)O)=C(Cl)CS[C@H]12)c1ccccc1 [Cefaclor] | 0 |  |
| CC1=C(C(=O)O)N2C(=O)[C@@H](NC(=O)[C@H](N)c3ccc(O)cc3)[C@H]2SC1 [Cefadroxil hydrate] | 0 |  |
| Cn1nnnc1SCC1=C(C(=O)O)N2C(=O)[C@@H](NC(=O)[C@H](OC=O)c3ccccc3)[C@H]2SC1 [Cefamandole nafate] | 0 |  |
| Cc1nnc(SCC2=C(C(=O)O)N3C(=O)[C@@H](NC(=O)Cn4cnnn4)[C@H]3SC2)s1 [Cefazolin Sodium] | 2.52 |  |
| CC/C=C(\C(=O)N[C@@H]1C(=O)N2C(C(=O)OCOC(=O)C(C)(C)C)=C(COC(N)=O)CS[C@H]12)c1csc(N)n1 [Cefcapene Pivoxil Hydrochloride] | 0.547 |  |

| Compound | inhibition at 100 µM [%] | %inhibition [%] |
| --- | --- | --- |
| CO/N=C(\C(=O)N[C@@H]1C(=O)N2C(C(=O)OCOC(=O)C(C)(C)C)=C(/C=C\c3scnc3C)CS[C@H]12)c1csc(N)n1 [Cefditoren Pivoxil] | 0 |  |
| CO/N=C(\C(=O)N[C@@H]1C(=O)N2C(C(=O)O)=C(C[N+]3(C)CCCC3)CS[C@H]12)c1csc(N)n1 [Cefepime Dihydrochloride Monohydrate] | 0 |  |
| C=CC1=C(C(=O)O)N2C(=O)[C@@H](NC(=O)/C(=N\OCC(=O)O)c3csc(N)n3)[C@H]2SC1 [Cefixime] | 0 |  |
| CO/N=C(\C(=O)N[C@@H]1C(=O)N2C(C(=O)O)=C(CSc3nnnn3C)CS[C@H]12)c1csc(N)n1 [Cefmenoxime hydrochloride] | 0 |  |
| CO[C@@]1(NC(=O)CSCC#N)C(=O)N2C(C(=O)O)=C(CSc3nnnn3C)CS[C@@H]21 [Cefmetazole sodium] | 8.58 |  |
| O=C(O)C1=C(CSc2nnnn2CS(=O)(=O)O)CS[C@@H]2[C@H](NC(=O)[C@H](O)c3ccccc3)C(=O)N12 [Cefonicid sodium] | 0 |  |
| CCN1CCN(C(=O)N[C@@H](C(=O)N[C@@H]2C(=O)N3C(C(=O)O)=C(CSc4nnnn4C)CS[C@H]23)c2ccc(O)cc2)C(=O)C1=O [Cefoperazone] | 0 |  |
| NCc1ccccc1CC(=O)N[C@@H]1C(=O)N2C(C(=O)O)=C(CSc3nnnn3CC(=O)O)CS[C@H]12 [Ceforanide] | 0 |  |
| CO/N=C(\C(=O)N[C@@H]1C(=O)N2C(C(=O)O)=C(Cn3ccc(=N)n3CCO)CS[C@H]12)c1csc(N)n1 [Cefoselis Sulfate] | 22.8 |  |
| CO/N=C(\C(=O)N[C@@H]1C(=O)N2C(C(=O)O)=C(COC(C)=O)CS[C@H]12)c1csc(N)n1 [Cefotaxime sodium] | 0.981 |  |
| CC(OC(=O)OC1CCCCC1)OC(=O)C1=C(CSc2nnnn2CCN(C)C)CS[C@@H]2[C@H](NC(=O)Cc3csc(N)n3)C(=O)N12 (some centres unmarked) [Cefotiam Hexetil Hydrochloride] | 0 |  |
| CN(C)CCn1nnnc1SCC1=C(C(=O)O)N2C(=O)[C@@H](NC(=O)Cc3csc(N)n3)[C@H]2SC1 [Cefotiam hydrochloride] | 23.3 |  |
| CO[C@@]1(NC(=O)Cc2cccs2)C(=O)N2C(C(=O)O)=C(COC(N)=O)CS[C@@H]21 [Cefoxitin sodium] | 0 |  |
| CO/N=C(\C(=O)N[C@@H]1C(=O)N2C(C(=O)[O-])=C(C[n+]3ccn4ncccc43)CS[C@H]12)c1nsc(N)n1 [Cefozopran hydrochloride] | 8.9 |  |
| Cc1cc(O)c(C(=O)N[C@@H](C(=O)N[C@@H]2C(=O)N3C(C(=O)O)=C(CSc4nnnn4C)CS[C@H]23)c2ccc(O)cc2)cn1 [Cefpiramide sodium] | 0 |  |
| CO/N=C(\C(=O)N[C@@H]1C(=O)N2C(C(=O)[O-])=C(C[n+]3cccc4c3CCC4)CS[C@H]12)c1csc(N)n1 [Cefpirome sulfate] | 0 |  |
| COCC1=C(C(=O)OC(C)OC(=O)OC(C)C)N2C(=O)[C@@H](NC(=O)/C(=N\OC)c3csc(N)n3)[C@H]2SC1 (some centres unmarked) [Cefpodoxime proxetil] | 13.2 |  |
| CC1=C(C(=O)O)N2C(=O)[C@@H](NC(=O)[C@H](N)C3=CCC=CC3)[C@H]2SC1 [Cefradine] |  | 0.656 |
| CC(C)(O/N=C(\C(=O)N[C@@H]1C(=O)N2C(C(=O)[O-])=C(C[n+]3ccccc3)CS[C@H]12)c1csc(N)n1)C(=O)O [Ceftazidime Pentahydrate] | 0 |  |
| Nc1nc(/C(=C/CC(=O)O)C(=O)N[C@@H]2C(=O)N3C(C(=O)O)=CCS[C@H]23)cs1 [Ceftibuten dihydrate] | 10.7 |  |
| CO/N=C(\C(=O)N[C@@H]1C(=O)N2C(C(=O)O)=C(CSC(=O)c3ccco3)CS[C@H]12)c1csc(N)n1 [Ceftiofur HCl] |  | 20.8 |

From paper doi:10.1101/2021.10.07.463234v2 (biorxiv, 2021)
